Where a name gives a salt, the structure may show the parent alone. Read-outs that look alike come from different tables or passages of the source.
Columns and labels:
AmphiAmR11 [1] = molecular target: T1, AmphiAmR11 (Branchiostoma floridae, UniProt A0PF35); test: Inhibition of forskolin-stimulated cAMP levels in AmphiAmR11-expressing CHO-K1 cells (agonist mode); type: cell-based; settings: for Effect on forskolin-stimulated cAMP levels at 1 µM: 1 µM agonist
Protocol: CHO-K1 cells were maintained in Ham’s F-12 nutrient media (Invitrogen Life Sciences) supplemented with 10% charcoal-stripped foetal bovine serum (CS-FBS) (Hyclone, Cramlington, UK), 50 U/μg penicillin/streptomycin and 4 mM L-glutamine (Invitrogen Life Sciences) in 5% CO2 at 37°C. Stably transfected cell lines were generated by the transfection of CHO-K1 cells using Lipofectamine (Invitrogen Life Sciences) as described previously [8, 9].
cAMP levels in stably transfected CHO-K1 cells were determined as described previously [8, 9, 21], except 100 µM isobutylmethylxanthine (IBMX) was used. cAMP levels are represented as a percentage of basal samples unless otherwise stated. Student’s T-test (two-tailed and unpaired) was used to test for significance. Unless otherwise stated, all data are shown as mean ± SEM. Each data point plotted was the mean of data obtained from at least three experiments. Within each experiment three separate replicate wells were analysed for each condition and the cAMP assays on each of the wells was carried out in duplicate.
Forskolin was used both to increase basal cAMP levels to make it easier to detect increases and decreases in cAMP levels in the same experiments and also to potentiate responses to agonists to more accurately determine their threshold effects [see 22]. A non-saturating 10 µM concentration of forskolin was used.
Figure 1 Effect of biogenic amines and synthetic agonists on forskolin-stimulated cAMP levels in AmphiAmR11-expressing CHO-K1 cells. Cells were pre-incubated with 100 µM IBMX for 20 min, followed by incubation with 10 µM forskolin and 100 µM IBMX in the presence of increasing concentrations of various biogenic amines (A) or synthetic agonists (B) for a further 20 min. Data are expressed as the mean ± SEM. n ≥ 3.

AmphiAmR11 [2] = molecular target: T1, AmphiAmR11; test: ERK1/2 phosphorylation in AmphiAmR11-expressing CHO-K1 cells (Western blotting); type: cell-based; settings: for Duration of ERK1/2 phosphorylation response after the peak: 1 µM tyramine (level by 30 minutes) or 30 nM dopamine; for Time of peak ERK1/2 phosphorylation: 1 µM tyramine or 30 nM dopamine; for Effect on ERK1/2 phosphorylation at 10 nM: 10 nM biogenic amine; for Effect of antagonist on ERK1/2 phosphorylation in the absence of dopamine: 1 μM antagonist
AmphiAmR11 [3] = molecular target: T1, AmphiAmR11; test: Calcium mobilisation in AmphiAmR11-expressing CHO-K1 cells (Fura-2, percentage of responding cells per field of view); type: cell-based; settings: for Calcium response at 10 nM: 10 nM biogenic amine, compared with dopamine
Protocol: Stably transfected CHO-K1 cells were assayed for changes in intracellular calcium levels using an Olympus Cell^R imaging system and the fluorescent indicator Fura-2, as described previously, with modifications described by Bayliss et al.. At 1 minute into the experiment, a buffer control was added and at 2 minutes into the experiment, the specified concentration of agonist was added. A single coverslip of cells was used per concentration of agonist and the percentage of cells that responded per field of view was calculated. The results from each coverslip gave an n of 1 and each agonist concentration was repeated at least three times on different days.
Figure 6 Effect of biogenic amines and calcium pathway inhibitors on calcium mobilisation in AmphiAmR11-expressing CHO-K1 cells. AmphiAmR11-expressing cells were exposed to increasing concentrations (A) or 10 nM (B) of biogenic amines for 3 minutes and the number of responding cells per field of view were calculated. Data are expressed as the mean ± SEM. n ≥ 3. FOV, field of view; DA, dopamine; TA, tyramine; NA, noradrenaline; Adr, adrenaline; OA, octopamine.

AmphiAmR11 [4] = molecular target: T1, AmphiAmR11; test: cell-based; type: cell-based; settings: for Concentrations coupling AmphiAmR11 to an increase in cAMP levels: after pertussis toxin; for Effect on forskolin-stimulated cAMP levels following pertussis toxin treatment: amines at 100 µM; for Concentration dependence of increase in forskolin-stimulated cAMP levels following pertussis toxin: 16 h, up to 100 µM
[5] = system: dopamine-induced ERK1/2 activation; test: Effect of pertussis toxin and signalling inhibitors on agonist-induced ERK1/2 activation in AmphiAmR11-expressing CHO-K1 cells; type: cell-based, Chinese hamster; settings: for Effect of inhibitor on dopamine-induced ERK1/2 phosphorylation: 10 µM inhibitor, 5 minutes
Protocol: Phospho-extracellular signal-related kinase (Phospho-ERK) levels were determined essentially as described previously. Minor modifications have been described. ERK1/2 phosphorylation levels were quantified by densitometry. The developed films were scanned in and analysed using the software program, Aida. The data generated by Aida was then processed using Microsoft Excel. Values for the kinase expression and activity levels were defined as 100% in the control samples. Student’s T-test (two-tailed and unpaired) was used to test for significance.
Figure 5 Effect of pertussis toxin and signalling inhibitors on dopamine-induced ERK1/2 activation in AmphiAmR11-expressing CHO-K1 cells. For the pertussis toxin experiment, AmphiAmR11-expressing CHO-K1 cells were pre-incubated with pertussis toxin (200 ng/ml) for 16 hours prior to serum-starvation for 2 hours in the absence of the toxin. Cells were then stimulated for 5 mins with 10 nM dopamine (open bar) or F-12 Hams control (black bar). For all other inhibitors, AmphiAmR11-expressing CHO-K1 cells were serum starved for 2 hours including incubation with 10 µM inhibitor or F-12 Hams control for the final 20 (AG1296 and AG1478) or 30 (PP2, LY294002, Ro31-8220, U0126, U73122 and U73343) minutes. Cells were then stimulated for 5 minutes with 10 nM dopamine […] in the presence of the inhibitor. Basal measurement in the absence of dopamine and inhibitor (first black bar) and the dopamine-only response in the absence of inhibitor (first open bar) are shown. (A) Representative blots from three or four independent experiments. […] Data are expressed as the mean + SEM. n = 3 - 4. DA, dopamine; PTX, pertussis toxin; Ro, Ro 31-8220; LY, LY294002.
Figure S3. Time courses for the effect of dopamine and tyramine on ERK1/2 phosphorylation in AmphiAmR11-expressing CHO-K1 cells. (A and B) AmphiAmR11-expressing CHO-K1 cells were serum-starved for 2 hours, prior to stimulation with tyramine or dopamine at the specified concentration for the specified length of time. Equal quantities of cell lysates were separated by SDS-PAGE and analysed for pERK or tERK by Western blotting. (C and D): AmphiAmR11-expressing CHO-K1 cells were incubated with pertussis toxin (200 ng/mL) for 16 hours followed by stimulation as described for Figures A and B. (A to D) Representative blot for each condition from three to four independent experiments. (E) Summary of the quantified blots. Data are expressed as the mean ± SEM. n = 3-4. PTX, pertussis toxin; Min, minutes.

AmphiAmR11 [6] = molecular target: T1, AmphiAmR11; test: Block of dopamine-induced ERK1/2 activation in AmphiAmR11-expressing CHO-K1 cells by antagonists; type: cell-based; settings: 1 µM antagonist, 10 nM dopamine, 5 min
AmphiAmR11 [7] = molecular target: T1, AmphiAmR11; test: Block of tyramine-induced inhibition of forskolin-stimulated cAMP levels in AmphiAmR11-expressing CHO-K1 cells; type: cell-based; settings: 30 nM tyramine
[8] = 10 µM forskolin, 100 µM IBMX, 20 min, full concentration response curves, read-out: EC50 for decrease in forskolin-stimulated cAMP levels
[9] = 1 µM synthetic agonist, 5 min, dopamine as reference
[10] = pertussis toxin 200 ng/mL, 16 hours
[11] = 10 µM forskolin, 100 µM IBMX, 20 min
[12] = 1 μM antagonist, 10 µM forskolin

T1 sequence (A0PF35 entry or part of it): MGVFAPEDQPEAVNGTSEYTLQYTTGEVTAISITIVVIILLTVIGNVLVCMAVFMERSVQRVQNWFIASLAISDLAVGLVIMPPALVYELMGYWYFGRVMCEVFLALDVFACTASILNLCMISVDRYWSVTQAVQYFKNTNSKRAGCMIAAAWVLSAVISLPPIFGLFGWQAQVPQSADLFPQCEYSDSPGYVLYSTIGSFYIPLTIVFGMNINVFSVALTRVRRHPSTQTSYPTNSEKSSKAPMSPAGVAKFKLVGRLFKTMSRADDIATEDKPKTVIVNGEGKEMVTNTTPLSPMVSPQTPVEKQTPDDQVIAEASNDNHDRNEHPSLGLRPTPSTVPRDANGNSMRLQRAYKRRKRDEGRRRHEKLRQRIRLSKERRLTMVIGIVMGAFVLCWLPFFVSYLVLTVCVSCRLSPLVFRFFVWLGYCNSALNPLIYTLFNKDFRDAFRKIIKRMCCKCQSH

Oc1cc2c(cc1O)[C@@H](c1ccccc1)CNCC2 [SKF38393, R(+)-1-phenyl-2,3,4,5-tetrahydro-(^1H)-3-benzazepine-7,8-diol]
EC50 (AmphiAmR11 [1]; [8]): 792 nM
Effect on ERK1/2 phosphorylation at 1 µM (AmphiAmR11 [2]; [9]): less effective than naphazoline, UK14,304 and quinpirole

NCCc1ccc(O)cc1 [tyramine, tyramine hydrochloride]
EC50 (AmphiAmR11 [3]; 3 minutes exposure, read-out: EC50 for calcium mobilisation (percentage of responding cells per field of view)): 767 nM
Concentrations coupling AmphiAmR11 to an increase in cAMP levels (AmphiAmR11 [4]): above 1 µM
Effect on forskolin-stimulated cAMP levels following pertussis toxin treatment (AmphiAmR11 [4]; [10]): increase in forskolin-stimulated cAMP levels
Concentration dependence of increase in forskolin-stimulated cAMP levels following pertussis toxin (AmphiAmR11 [4]; pertussis toxin 200 ng/mL): concentration-dependent effects
EC50 (AmphiAmR11 [1]; [8]): 7.47 nM
EC50 (AmphiAmR11 [2]): 18.2 nM
Duration of ERK1/2 phosphorylation response after the peak (AmphiAmR11 [2]): approximately half that of its peak at 5 minutes
Time of peak ERK1/2 phosphorylation (AmphiAmR11 [2]): approximately 5 minutes

N#CC(=C(N)Sc1ccccc1N)C(C#N)=C(N)Sc1ccccc1N [U0126, 1,4-Diamino-2,3-dicyano-1,4-bis(o-aminophenylmercapto)butadiene]
Effect of inhibitor on dopamine-induced ERK1/2 phosphorylation ([5]; 10 nM dopamine): abolished

COc1cc2ncnc(Nc3cccc(Cl)c3)c2cc1OC [AG1478, tyrphostin AG 1478]
Effect of inhibitor on dopamine-induced ERK1/2 phosphorylation ([5]; 10 nM dopamine): neither inhibitor had a significant effect

NCCc1ccc(O)c(O)c1 [dopamine, dopamine hydrochloride]
EC50 (AmphiAmR11 [3]): 1.68 nM
Fold more potent than tyramine in calcium assay (AmphiAmR11 [3]; ratio of EC50 values): approximately 450 fold
EC50 (AmphiAmR11 [4]): 470 nM
Concentrations coupling AmphiAmR11 to an increase in cAMP levels (AmphiAmR11 [4]): less than 1 µM
Effect on forskolin-stimulated cAMP levels following pertussis toxin treatment (AmphiAmR11 [4]; [10]): increase in forskolin-stimulated cAMP levels
EC50 (AmphiAmR11 [1]): 16.7 nM
EC50 (AmphiAmR11 [2]): 1.27 nM
Duration of ERK1/2 phosphorylation response after the peak (AmphiAmR11 [2]): more sustained ERK1/2 phosphorylation response
Time of peak ERK1/2 phosphorylation (AmphiAmR11 [2]): approximately 5 minutes
Fold more potent than tyramine in MAPK assay (AmphiAmR11 [2]; ratio of EC50 values): 10 fold

Br.C=CCN1CCc2c(cc(O)c(O)c2Cl)C(c2ccccc2)C1 (racemic) [6-Chloro-APB, (±)-6-chloro-7,8-dihydroxy-3-allyl-1-phenyl-2,3,4,5-tetrahydro-^1H-3-benzazepine hydrobromide]
EC50 (AmphiAmR11 [1]; [8]): 2230 nM
Effect on ERK1/2 phosphorylation at 1 µM (AmphiAmR11 [2]; [9]): less effective than naphazoline, UK14,304 and quinpirole

CNCC(O)c1ccc(O)cc1 (racemic) [synephrine, (±)-synephrine]
Effect on forskolin-stimulated cAMP levels following pertussis toxin treatment (AmphiAmR11 [4]; [10]): did not induce an increase
EC50 (AmphiAmR11 [1]): 1650 nM
Effect on ERK1/2 phosphorylation at 10 nM (AmphiAmR11 [2]; 5 min): not able to increase

NC[C@H](O)c1ccc(O)c(O)c1 [noradrenaline, (-)-noradrenaline hydrochloride]
Calcium response at 10 nM (AmphiAmR11 [3]): less effective than dopamine
Concentrations coupling AmphiAmR11 to an increase in cAMP levels (AmphiAmR11 [4]): above 1 µM
Effect on forskolin-stimulated cAMP levels following pertussis toxin treatment (AmphiAmR11 [4]; [10]): increase in forskolin-stimulated cAMP levels
Concentration dependence of increase in forskolin-stimulated cAMP levels following pertussis toxin (AmphiAmR11 [4]; pertussis toxin 200 ng/mL): concentration-dependent effects
EC50 (AmphiAmR11 [1]): 844 nM
Effect on ERK1/2 phosphorylation at 10 nM (AmphiAmR11 [2]; 5 min): not able to increase

NCC(O)c1ccc(O)cc1 (racemic) [octopamine, (±)-p-octopamine hydrochloride]
Calcium response at 10 nM (AmphiAmR11 [3]): less effective than dopamine
Effect on forskolin-stimulated cAMP levels following pertussis toxin treatment (AmphiAmR11 [4]; [10]): did not induce an increase
EC50 (AmphiAmR11 [1]; [8]): 1300 nM
Effect on ERK1/2 phosphorylation at 10 nM (AmphiAmR11 [2]; 5 min): not able to increase

pertussis toxin
Effect of pertussis toxin treatment on amine-mediated decreases in forskolin-stimulated cAMP levels (AmphiAmR11 [4]; [10]): inhibit the amine-mediated decreases
Effect of pertussis toxin on tyramine- and dopamine-induced ERK1/2 phosphorylation at multiple time points ([5]; pertussis toxin 200 ng/mL, 16 hours, 1 µM tyramine, 30 nM dopamine): abolished
Effect of pertussis toxin on ERK1/2 response at 5 minutes of dopamine stimulation ([5]; pertussis toxin 200 ng/ml, 16 hours, 10 nM dopamine): abolished

CNC[C@H](O)c1cccc(O)c1 [phenylephrine, (R)-(-)-phenylephrine hydrochloride]
Effect on forskolin-stimulated cAMP levels at 1 µM (AmphiAmR11 [1]; [11]): little or no effect
Effect on ERK1/2 phosphorylation at 1 µM (AmphiAmR11 [2]; [9]): little or no effect

CC(C)NCC(O)c1ccc(O)c(O)c1 (racemic) [isoproterenol, (±)-isoproterenol hydrochloride]
Effect on forskolin-stimulated cAMP levels at 1 µM (AmphiAmR11 [1]; [11]): little or no effect
Effect on ERK1/2 phosphorylation at 1 µM (AmphiAmR11 [2]; [9]): little or no effect

CC(N)c1ccccc1 (racemic) [phenylethylamine, (±)-1-phenylethylamine]
Concentrations coupling AmphiAmR11 to an increase in cAMP levels (AmphiAmR11 [4]): above 1 µM
Effect on forskolin-stimulated cAMP levels following pertussis toxin treatment (AmphiAmR11 [4]; [10]): increase in forskolin-stimulated cAMP levels
Concentration dependence of increase in forskolin-stimulated cAMP levels following pertussis toxin (AmphiAmR11 [4]; pertussis toxin 200 ng/mL): concentration-dependent effects
EC50 (AmphiAmR11 [1]; [8]): 16.5 nM
EC50 (AmphiAmR11 [2]; 5 min stimulation, read-out: EC50 for inducing ERK1/2 phosphorylation): 57.8 nM

COc1cccc(OC)c1OCCNCC1COc2ccccc2O1 (centres unmarked) [WB4101]
Block of dopamine-induced ERK1/2 activation (AmphiAmR11 [6]): partial effect
Decrease of forskolin-stimulated cAMP levels by antagonist in the absence of agonist (AmphiAmR11 [1]; [12]): could inhibit forskolin-stimulated cAMP levels
EC50 (AmphiAmR11 [1]; [8]): 32 nM
Agonist type at AmphiAmR11 (full or partial) (AmphiAmR11 [1]; cAMP assay): partial agonist
Inhibition of forskolin-stimulated cAMP levels (maximal) (AmphiAmR11 [1]; concentration-response curves, absence of other agonist): approximately 75%
Effect of antagonist on ERK1/2 phosphorylation in the absence of dopamine (AmphiAmR11 [2]): increase in ERK1/2 phosphorylation
Blocking effect on tyramine-induced response at reduced antagonist concentrations (AmphiAmR11 [7]; varying concentrations of antagonist): small blocking effect

COc1cc2ncc(-c3ccccc3)nc2cc1OC [AG1296, tyrphostin AG1296]
Effect of inhibitor on dopamine-induced ERK1/2 phosphorylation ([5]; 10 nM dopamine): neither inhibitor had a significant effect

CCN(CC)CCNC(=O)c1cc(Cl)c(N)cc1OC [metoclopramide, metoclopramide hydrochloride]
Block of dopamine-induced ERK1/2 activation (AmphiAmR11 [6]): no significant effect
Effect of antagonist on ERK1/2 phosphorylation in the absence of dopamine (AmphiAmR11 [2]): did not exhibit any agonistic properties
Block of tyramine-induced inhibition of forskolin-stimulated cAMP levels (AmphiAmR11 [7]; [12]): no significant blocking effect

Clc1cccc(Cl)c1N=C1NCCN1 [clonidine, clonidine hydrochloride]
EC50 (AmphiAmR11 [1]): 623 nM
Effect on ERK1/2 phosphorylation at 1 µM (AmphiAmR11 [2]): less effective than naphazoline, UK14,304 and quinpirole

NCCc1c[nH]cn1 [histamine, histamine dihydrochloride]
Effect on forskolin-stimulated cAMP levels at 1 µM (AmphiAmR11 [1]; [11]): no effect
Effect on ERK1/2 phosphorylation at 10 nM (AmphiAmR11 [2]; 5 min): not able to increase

Cn1cc(C2=C(c3cn(CCCSC(=N)N)c4ccccc34)C(=O)NC2=O)c2ccccc21 [Ro 31-8220]
Effect of inhibitor on dopamine-induced ERK1/2 phosphorylation ([5]; 10 nM dopamine): near basal levels

Brc1c(NC2=NCCN2)ccc2nccnc12 [UK14,304, UK14304]
EC50 (AmphiAmR11 [1]): 350 nM
Effect on ERK1/2 phosphorylation at 1 µM (AmphiAmR11 [2]; [9]): most effective of the synthetic agonists

CC(C)(C)n1nc(-c2ccc(Cl)cc2)c2c(N)ncnc21 [PP2, 3-(4-chlorophenyl) 1-(1,1-dimethylethyl)-1H-pyrazolo[3,4-d]pyrimidin-4-amine]
Effect of inhibitor on dopamine-induced ERK1/2 phosphorylation ([5]; 10 nM dopamine): no effect
